The values that follow are results of earlier work, collected in patent US20240293789A1, “Encapsulation of Functional Additives in Partially-Open Microcapsules” (priority 2023, published 2024).

The conditions of the data set: common solvents used for the encapsulated materials; reference table.

For `CCOC(C)=O` [ethyl acetate], the solubility in water is reported as 8.7 g/100 g. With `Cc1ccccc1C` [o-xylene], the solubility in water entry is “Insoluble”. Consider `CCCCCC` [hexane], for which the solubility in water is 0.0014 g/100 g. With `CCO` [ethanol], the solubility in water result was “Miscible”.

`CCCCC` [pentane]: the solubility in water was 0.04 g/100 g.

On to `OCC(O)CO` [glycerin], for which the solubility in water result is on record as “Miscible”. Consider `CCCCCCC` [heptane], for which the solubility in water is given as 0.01 g/100 g. On to `C1CCCCC1` [cyclohexane], for which the solubility in water is on record as 0.0055 g/100 g. Take `CN(C)P(N(C)C)N(C)C` [Hexamethylphosphorous triamide (HMPT), Hexamethylphosphorous triamide]: the solubility in water entry is listed as “Miscible”. As for `Cc1cccc(C)c1` [m-xylene], the solubility in water entry is “Insoluble”. For the compound `Cc1ccc(C)cc1` [p-xylene], the solubility in water result was “Insoluble”. `COCCOC` [1,2-dimethoxy-ethane (glyme, DME), 1,2-dimethoxy-ethane]: the solubility in water result was “Miscible”. As to `CCOCC` [diethyl ether], the solubility in water was 7.5 g/100 g. Regarding `COCCOCCOC` [diethylene glycol dimethyl ether], the solubility in water entry was “Miscible”.
